The test system of assay [1] is BALB/c mice. In words: Ear pinna injury, ear punch closure. Format: in vivo, mouse. The procedure: Experiments were performed on 8–12 week-old female BALB/c (24 mice in total) and C57BL/6 mice (36 mice in total). All mice originated from the Centre for Experimental Medicine of the Medical University of Białystok, Poland, and were kept in the animal facility at the Nencki Institute of Experimental Biology throughout the course of the study. After delivery to the Nencki Institute animal facility, mice rested for at least two weeks for acclimatization before starting the experiment. Experiments were approved by the First Local Ethics Committee in Warsaw (permit No. 491/2013 and 542/2018). Animal experimentation was performed in accordance with EU directive 2010/63/EU, and all experiments were undertaken in such a way as to minimize discomfort and the number of animals used in the study.
Mice were placed individually in separate cages, weighed, and randomly divided into two groups within each mouse strain: The treatment group and the control group. Before the study all mice were randomly given numerical equivalents, and all experimenters performing further analysis were not aware of the experimental group and referred solely to those numbers. Similarly, vials containing IM (treatment) or saline (control) were encrypted and assigned to particular mice, so the person performing injections and ear photographs was not aware of mice background. Lastly, the person quantifying each ear hole closure was not aware of the group. Numerical equivalents of each mice were only decrypted at the end of the study. Before study each animal was anesthetized with Isoflurane (Iso-Vet; Piramal, UK), ears were quickly disinfected with 70% isopropanol and circular punches 2 mm in diameter were made in the center of both ear pinnae using disposable biopsy punches (Integra Miltex; Integra Life Sciences, Princeton, NJ, USA). Due to some occasional self-inflicted injuries (tearing off one or both ear lobes) during the course of the study, the measurement data from destroyed lobes were excluded from comparisons of the next time points. […]
To monitor the progress of wound healing, ears were photographed on the day of the injury (day 0, before and right after pinna injury), and on days 7, 14, 21, 28, 35, and 42. […] Finally, the area of the wound hole was outlined by hand on digitized images as an overlay, and the hole areas in the ears were evaluated using computer-assisted image analysis (ImageJ Software). […] The final number of analyzed ears was 23 per group on day 42. […] The final number of analyzed ears on day 42 was 32 in the control group and 16 in the treatment group. […]

In assay [2] the test system is human lymphocyte cultures. The note with it: cited from earlier work. The text has this:
Peptides play an important role in immunology, often through being epitopes for adaptive immune systems. Besides, they take part in mobilizing immune cells. […] Unfortunately, application of synthetic peptides can lead to unwanted immune activation or allergies and immunogenicity or immune-related adverse effects can limit the effectiveness of peptide-based therapies [[35],[36],[37 ...

Consider one compound from PMC7355430, “Imunofan—RDKVYR Peptide—Stimulates Skin Cell Proliferation and Promotes Tissue Repair” (Molecules, 2020).

Several values for one entry are separate records, joined by “and”; a condition that tells them apart may be missing. Equal values may be shown once. Peptide text beside a SMILES is read from it.

For the compound `CC(C)[C@H](NC(=O)[C@H](CCCCN)NC(=O)[C@H](CC(=O)O)NC(=O)[C@@H](N)CCCNC(=N)N)C(=O)N[C@@H](Cc1ccc(O)cc1)C(=O)N[C@@H](CCCNC(=N)N)C(=O)O` [IM, H-Arg-Asp-Lys-Val-Tyr-Arg-OH] (H-RDKVYR-OH), the “histology of the epidermis in healed ear pinna” value in assay [1] (42 days after injury, hematoxylin and eosin) is “signs of parakeratosis”. Also, the “mean ear hole area” value in assay [1] (day 42 post-injury, 2 mm punch, s.c. 5.0 µg/g, 10 injections, mean ± SD, saline control 1.96 ± 0.48) stood at 1.69 ± 0.38 mm^2. Further, the “wound closure (ear hole closure)” value in assay [1] (day 42 post-injury, s.c. 5.0 µg/g, 10 injections, mean ± SD, saline control 37.9% ± 14.2%) is 46.2% ± 12.2% and 46%. Also, in assay [1] (ear pinna injury, as summarised in the abstract), the “tissue repair in comparison to control” value was 8%. Also, in assay [2], the “synthesis of IgE” value was “suppress the synthesis”. Further, in assay [2] (following stimulation with pokeweed mitogen), the “production of IgM, IgG, and IgA” value is “increase the production”.
